The values below come from PMC8388771, “Cationic Peptidomimetic Amphiphiles Having a N-Aryl- or N-Naphthyl-1,2,3-Triazole Core Structure Targeting Clostridioides (Clostridium) difficile: Synthesis, Antibacterial Evaluation, and an In Vivo C. difficile Infection Model” (Antibiotics, 2021).

One data set relates to human erythrocytes. Description: Hemolysis assay, HC50 determination. The format is cell-based. The procedure: Hemolysis assay (human erythrocytes)–HC50 determination. These were performed as described previously.
Data set [1] concerns E. coli ATCC 25922. In words: CO-ADD MIC assay, E. coli ATCC 25922. As to conditions: Escherichia coli, ATCC25922, Table S1. The format is cell-based. From the text: (§1) The N-arytriazole and N-naphthyltriazole peptidomimetics were subjected to antimicrobial screening. […] Vancomycin, colistin, fluconazole, and tamoxifen were used as positive controls (see Table 1 for details).
(§2) Secondary screening (MRSA and Gram-negative bacteria) and cytotoxicity assay–performed by the Community for Open Antimicrobial Drug Discovery (CO-ADD). Samples were provided to CO-ADD [29] for antimicrobial screening by whole cell growth inhibition assays.
(§3) Bacterial Inhibition–MIC Assay. These were performed as described previously.

A further data set has as its system P. aeruginosa ATCC 27853. Description: CO-ADD MIC assay, P. aeruginosa ATCC 27853. The data set is classed as cell-based. Particulars: Pseudomonas aeruginosa, ATCC27853, Table S1.
From the text: as §1, §2, §3

For data set [2], the system named is E. coli ATCC 25922. In words: Primary MIC assay, E. coli ATCC 25922. The format is cell-based. As to conditions: Escherichia coli, ATCC25922; Table 1; read-out: MIC E. coli ATCC 25922.
For data set [3], the system named is Cryptococcus neoformans var. grubii ATCC 208821. In words: CO-ADD MIC assay, C. neoformans var. grubii ATCC 208821. As to conditions: Cryptococcus neoformans, ATCC208821, Table S1. The format is cell-based.
From the text: as §1, §2

The subject of the next data set is S. aureus NCTC 10442. Description: Primary MIC assay, S. aureus NCTC 10442 (MRSA). The data set is classed as cell-based. As to conditions: Staphylococcus aureus; Table 1; MRSA; read-out: MIC S. aureus NCTC 10442. The procedure:
as §1
(§4) Primary screening (Gram-positive bacteria). Primary MIC assays were performed as described by the Clinical and Laboratory Standards Institute for aerobic and anaerobic bacteria. MIC values for vancomycin were within acceptable QC ranges.

For a further data set, the system named is S. aureus ATCC 43300. Description: CO-ADD MIC assay, S. aureus ATCC 43300 (MRSA). The format is cell-based. Particulars: Staphylococcus aureus, Table S1; MRSA; CO-ADD; read-out: MIC S. aureus ATCC 43300.
From the text: as §1, §2, §3

The subject of another data set is C. difficile ATCC 700057. Description: Primary MIC assay, C. difficile ATCC 700057. The data set is classed as cell-based, Clostridioides difficile. As to conditions: Clostridioides difficile, ATCC700057; Table 1; read-out: MIC C. difficile ATCC 700057. As for the experimental part: as §1, §4
Another data set concerns C. difficile 132 (RT027). In words: Primary MIC assay, C. difficile 132 (RT027). The data set is classed as cell-based, Clostridioides difficile. As to conditions: Clostridioides difficile; Table 1; read-out: MIC C. difficile 132 (RT027). As for the experimental part: as §1, §4
Data set [4] is described as follows: Cytotoxicity (CC50) assay by CO-ADD. The format is cell-based, human. As to conditions: human, HEK293 cells (ATCC CRL-1573); Table 1; cytotoxicity on HEK293 cells, tested at ≤32 µg/mL.
From the text: as §1, §2
Cytotoxicity Assay. These were performed as described previously.

The test system of a further data set is C. albicans ATCC 90028. Description: CO-ADD MIC assay, C. albicans ATCC 90028. The data set is classed as cell-based. Particulars: Candida albicans, ATCC90028, Table S1.
From the text: as §1, §2

The next data set has as its system S. pneumoniae ATCC 49619. In words: Primary MIC assay, S. pneumoniae ATCC 49619. The data set is classed as cell-based, Streptococcus pneumoniae. Particulars: Streptococcus pneumoniae, ATCC49619; Table 1; read-out: MIC S. pneumoniae ATCC 49619. As for the experimental part: as §1, §4
The test system of a further data set is S. aureus ATCC 29213. Description: Primary MIC assay, S. aureus ATCC 29213. The data set is classed as cell-based. As to conditions: Staphylococcus aureus, ATCC29213; Table 1; read-out: MIC S. aureus ATCC 29213. As for the experimental part:
as §1, §4

Another data set has as its system E. faecalis ATCC 29212. In words: Primary MIC assay, E. faecalis ATCC 29212. The format is cell-based, Enterococcus faecalis. As to conditions: Enterococcus faecalis, ATCC29212; Table 1; read-out: MIC E. faecalis ATCC 29212. The procedure:
as §1, §4

The subject of data set [5] is K. pneumoniae ATCC 700603. In words: CO-ADD MIC assay, K. pneumoniae ATCC 700603. As to conditions: Klebsiella pneumoniae, ATCC700603, Table S1, multi-drug resistant. The format is cell-based.
From the text: as §1, §2, §3

The next data set concerns A. baumannii ATCC 19606. Description: CO-ADD MIC assay, A. baumannii ATCC 19606. Particulars: Acinetobacter baumannii, ATCC19606, Table S1. The data set is classed as cell-based.
From the text: as §1, §2, §3

Where [6] appears, read: Table 1, lysis of human erythrocytes.
Where [7] appears, read: Table S1, footnote says lysis of sheep erythrocytes.

With `CC(C)CCc1cnnn1-c1ccccc1OCC(=O)N[C@H](CCCNC(=N)N)Cn1cc(CC2CCCCC2)nn1.Cl` [Compound 15], the HC50 with human erythrocytes (setting [6]) and in the data set with human erythrocytes (setting [7]) was greater than 32 µg/mL each time. Besides, the MIC with E. coli ATCC 25922 [1] is greater than 32 µg/mL; with P. aeruginosa ATCC 27853 it was greater than 32 µg/mL; with E. coli ATCC 25922 [2] it was 128 µg/mL; in [3], 32 µg/mL; with S. aureus NCTC 10442, 16 µg/mL; in the data set with S. aureus ATCC 43300, 32 µg/mL. The MIC with C. difficile ATCC 700057 is 64 µg/mL; in the data set on C. difficile 132 (RT027), 64 µg/mL; against C. albicans ATCC 90028, greater than 32 µg/mL; with S. pneumoniae ATCC 49619 it was 16 µg/mL; in the data set on S. aureus ATCC 29213, 16 µg/mL; in the data set on E. faecalis ATCC 29212, 16 µg/mL. Also, the MIC (in data set [5]; in the data set on A. baumannii ATCC 19606) was greater than 32 µg/mL each time. This molecule also had a CC50 in data set [4] greater than 32 µg/mL.

On to `CC(C)CCc1cnnn1-c1ccccc1OCC(=O)N[C@H](CCCNC(=N)N)Cn1cc(Cc2ccccc2)nn1.Cl` [Compound 16], for which the HC50 in the data set on human erythrocytes (setting [6]) and with human erythrocytes (setting [7]) was greater than 32 µg/mL throughout. The MIC in the data set with E. coli ATCC 25922 [1] was greater than 32 µg/mL; in the data set with P. aeruginosa ATCC 27853, greater than 32 µg/mL; in the data set with E. coli ATCC 25922 [2] it was greater than 128 µg/mL; in data set [3] it was 32 µg/mL; with S. aureus NCTC 10442 it was 32 µg/mL; with S. aureus ATCC 43300, 32 µg/mL. For the same molecule, the MIC in the data set on C. difficile ATCC 700057 is 32 µg/mL; with C. difficile 132 (RT027) it was 32 µg/mL; in the data set with C. albicans ATCC 90028, greater than 32 µg/mL; with S. pneumoniae ATCC 49619 it was 32 µg/mL; in the data set on S. aureus ATCC 29213, 32 µg/mL; in the data set on E. faecalis ATCC 29212, 32 µg/mL. Also, the MIC (in data set [5]; against A. baumannii ATCC 19606) was greater than 32 µg/mL throughout. The molecule also came in with a CC50 in [4] greater than 32 µg/mL.

`CC(C)CCc1cn(-c2c(OCC(=O)N[C@H](CCCNC(=N)N)Cn3cc(CC4CCCCC4)nn3)ccc3ccccc23)nn1.Cl` [Compound 22]: the HC50 in the data set on human erythrocytes (setting [6]) and in the data set with human erythrocytes (setting [7]) was greater than 32 µg/mL in each case. Moreover, the MIC with E. coli ATCC 25922 [1] was 32 µg/mL; against P. aeruginosa ATCC 27853, greater than 32 µg/mL; with E. coli ATCC 25922 [2] it was 32 µg/mL; in [3], 32 µg/mL; in the data set on S. aureus NCTC 10442 it was 4 µg/mL; in the data set with S. aureus ATCC 43300 it was 4 µg/mL. For the same molecule, the MIC amounted to 32 µg/mL in the data set with C. difficile ATCC 700057; 32 µg/mL with C. difficile 132 (RT027); 16 µg/mL against C. albicans ATCC 90028; 8 µg/mL in the data set on S. pneumoniae ATCC 49619; 4 µg/mL in the data set on S. aureus ATCC 29213; 8 µg/mL in the data set with E. faecalis ATCC 29212. Besides, the MIC (in data set [5]; in the data set on A. baumannii ATCC 19606) was greater than 32 µg/mL throughout. The half-maximal cytotoxic concentration (CC50) in data set [4] was greater than 32 µg/mL.

As to `CC(C)CCc1cn(-c2c(OCC(=O)N[C@H](CCCNC(=N)N)Cn3cc(Cc4ccccc4)nn3)ccc3ccccc23)nn1.Cl` [Compound 23], the HC50 with human erythrocytes (setting [6]) and with human erythrocytes (setting [7]) was greater than 32 µg/mL in each case. For the same molecule, the MIC in the data set with E. coli ATCC 25922 [1] is 32 µg/mL; against P. aeruginosa ATCC 27853 it was greater than 32 µg/mL; in the data set with E. coli ATCC 25922 [2], 64 µg/mL; in [3], 16 µg/mL; in the data set on S. aureus NCTC 10442 it was 4 µg/mL; in the data set on S. aureus ATCC 43300, 8 µg/mL. Also, the MIC with C. difficile ATCC 700057 is 32 µg/mL; in the data set on C. difficile 132 (RT027), 32 µg/mL; in the data set with C. albicans ATCC 90028, 32 µg/mL; in the data set with S. pneumoniae ATCC 49619, 4 µg/mL; with S. aureus ATCC 29213, 4 µg/mL; in the data set with E. faecalis ATCC 29212, 4 µg/mL. Besides, the MIC (in data set [5]; against A. baumannii ATCC 19606) was greater than 32 µg/mL in each case. Moreover, the CC50 in data set [4] was greater than 32 µg/mL.

The term HC50 denotes the concentration giving 50% haemolysis. The MIC is the least concentration at which growth counts as inhibited. Broadly, the CC50 is the concentration at which the toxic effect on the cells reaches its halfway point. The low end stands for harm at low concentration, the high end for better tolerance by the cells.
